{"source": "patent US12496304B2", "about": "“Selective glucocorticoid receptor modifiers for treating impaired skin wound healing” (AKRIBES BIOMEDICAL GMBH, priority 2019, dated 2025)", "key": {"IL-8 [1]": {"system": "IL-8", "assay": "U937 cell stimulation assay (LPS-induced IL-8)", "format": "cell-based, human", "details": "LPS 100 ng/ml, 16 hours (FIG. 16A)", "method": "The human monocytic cell line U937 (ATCC CRL 1593) was routinely grown in RPMI_1640 supplemented by 10% FCS and 2 mM glutamine, and 100 U/ml penicillin/100 μg/ml streptomycin. Cells were seeded at 4×10^5/ml in 50 μl/well of a 384-well plate and combined cells with graded concentrations of test compounds and LPS at 100 ng/ml. After 16 hours, the supernatants were transferred to fresh plates and frozen at −20° C. for IL-8 analysis, using a commercial ELISA kit."}, "IL1β": {"system": "IL1β", "assay": "mRNA expression in fibroblast cultures (qRT-PCR): IL-1β", "format": "cell-based, human", "method": "Cells were seeded into 24-well plates and incubated with compounds in the presence or absence of wound exudates for 72 hours. Total RNA was isolated using the RNeasy Mini Kit (QIAGEN #74106) according to the manufacturer's protocol. RNA integrity and concentration for each sample was confirmed and measured with the Qubit fluorometer. Each RNA sample was then diluted to 2 ng/μl in nuclease-free doubly distilled water.\n20 ng of total RNA were reverse-transcribed into cDNA and immediately subjected to PCR amplification using the SuperScript Ill Platinum One-Step Quantitative RT-PCR System with ROX (Invitrogen #11745). qRT-PCR amplifications were performed in 20 μl reactions containing 9 μl 2× Reaction Mix with ROX, 0.4 μl SuperScript III RT/Platinum Taq Mix and 1 μl primer (final: 900 nM, Taqman Gene Expression Assay, Applied Biosystems) […]\nThe house keeping gene elongation factor 1a (EF1a) was used as a reference gene. Normalized expression was calculated using the comparative Ct (or ΔCt) method, and fold changes were derived from the 2-ΔΔCt values for each gene. Graphs were prepared using relative Ct values that were calculated by subtracting the EF1a Ct values from the corresponding Ct values for the gene being measured."}, "IL-8 [2]": {"system": "IL-8", "assay": "Primary human monocyte cytokine secretion assay (spontaneous IL-8)", "format": "cell-based", "details": "16 hours (FIG. 16B)", "method": "Primary human monocytes were prepared from peripheral blood mononuclear cells (PBMC). PBMC were isolated from buffy coats obtained from the Red Cross, Vienna, using LymphoPrep (Technoclone). 30 ml of buffy concentrate was diluted 1:2 with PBS, gently underlayered with 15 ml Lymphoprep in a 50 ml Falcon tube and centrifuged for 25 minutes at 1800 rpm at 21° C. The interphase was carefully transferred to a new Falcon tube and filled up to 50 ml with ice cold PBS. After another centrifugation step (10 minutes, 1200 rpm, 4° C.), the cell pellet was washed 3 times with PBS, resuspended in RPMI medium containing 20% FCS and 10% DMSO and frozen in liquid nitrogen. Monocytes were generated from frozen aliquots using positive selection with the CD14 Beads-Kit (Miltenyi) on an autoMACS-Sorter (Miltenyi) according to the manufacturer's instructions.\nCells were seeded at 8×10^5/ml in 50 μl/well of a 384-well plate and combined cells with graded concentrations of test compounds. After 16 hours, the supernatants were transferred to fresh plates and frozen at −20° C. for IL-8 analysis, using a commercial ELISA kit."}}, "data": [{"smiles": "Cc1ccc2c(NC[C@](O)(CC(C)(C)c3cc(F)cc4c3OCC4)C(F)(F)F)cccc2n1", "note": "[Mapracorat]", "values": [{"measurement": "LPS-induced IL-8 secretion in U937 cells", "setting": "IL-8 [1]", "value": "inhibited both LPS-induced and spontaneous IL-8 secretion"}, {"measurement": "IL-1β mRNA expression", "setting": "IL1β; WE-1, graded concentrations, 72-hour incubation (FIG. 8A)", "value": "dose-dependently inhibited IL-1β mRNA expression in the presence of WE"}, {"measurement": "IL-1β mRNA expression", "setting": "IL1β; medium in the absence of WE, 72-hour incubation (FIG. 8B)", "value": "no IL-1β induction in medium"}, {"measurement": "spontaneous IL-8 secretion in human monocytes", "setting": "IL-8 [2]", "value": "inhibited both LPS-induced and spontaneous IL-8 secretion"}]}]}
